In series [1] the test system is BV2 (mouse microglia) cell line. Put plainly: pHrodo-myelin phagocytosis/cell viability high content imaging assay: phagocytosis signal. The format is cell-based. The gist of the method:
(§1)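 Mouse BV2 and human HMC3 microglia given pHrodo-myelin; phagocytosis and cell viability imaged together by high content imaging about 22 hours after myelin addition. Three measurements extracted, including intensity increase and decrease marking early and later apoptosis.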

Series [2] concerns HMC3 (human microglia) cell line. The description is as above. Type of series: cell-based. In short, it runs like this:
as §1

The test system of the next series is cellular system. The settings on record: published cellular activity at 10 μM; cited from earlier work.
The test system of series [3] is BV2 (mouse microglia) cell line. As to the kind of experiment: pHrodo-myelin phagocytosis/cell viability high content imaging assay: viability (cell count, nuclear area, nuclear intensity). The gist of the method:
(§2)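 Viability was read by high-content imaging as cell count per well and nuclear intensity per cell, in murine BV2 and human HMC3 microglial lines. Cells received a single 10 μM compound dose for 48 h, including 20 h with pHrodo-myelin. Duplicate means are expressed as % of untreated control.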

Series [4] concerns HMC3 (human microglia) cell line. The description is as above. In short, it runs like this: as §2
Series [5] can be described thus: Kinetic solubility in aqueous buffer pH 7.4 by total chemiluminescent nitrogen determination (Analiza). The conditions noted are these: aqueous buffer, pH 7.4, aqueous buffer, kinetic from dmso stock.

Data on 17 molecules can be found in article PMC9019904, “AD Informer Set: Chemical tools to facilitate Alzheimer's disease drug discovery” (Alzheimer's & Dementia : Translational Research & Clinical …, 2022).

The kinetic solubility is the concentration staying in solution when a stock, usually in DMSO, is diluted into the medium.

≈ marks a conversion by molar mass, not a printed value.

For the molecule `C[C@H](CCCC(C)(C)O)[C@H]1CC[C@H]2[C@@H]3CC=C4C[C@@H](O)CC[C@]4(C)[C@H]3CC[C@]12C` [25-Hydroxycholesterol], the “Inhibition of mouse microglial phagocytosis at 10 μM (<70% control)” value in series [1] (BV2 cells, 10 μM) was “Y (The compound was found to inhibit phagocytosis (response threshold: <70% control) when murine immortalized microglial cells were dosed at 10 μM (Y: yes))”. Besides, the “Inhibition of human microglial phagocytosis at 10 μM (<70% control)” value in series [2] (HMC3 cells, 10 μM) is given as “Y (The compound was found to inhibit phagocytosis (response threshold: <70% control) when human immortalized microglial cells were dosed at 10 μM (Y: yes))”. The “Reported as cell active (<10 μM)” value in the series with cellular system is “Y (Published data supports that the compound is active in a cellular system when dosed at 10 μM (Y/N))”.
As for `C=C(c1ccc(C(=O)O)cc1)c1cc2c(cc1C)C(C)(C)CCC2(C)C` [Bexarotene], the “Reported as cell active (<10 μM)” value with cellular system is given as “Y (Published data supports that the compound is active in a cellular system when dosed at 10 μM (Y/N))”.
Turning to `Cc1cc2c(cc1-c1cc(/C=C\C(=O)O)ccc1O)C(C)(C)CCC2(C)C` [CD3254], in the series on cellular system, the “Reported as cell active (<10 μM)” value was “Y (Published data supports that the compound is active in a cellular system when dosed at 10 μM (Y/N))”.
As for `Cl.N=C(CCl)NCCC[C@H](NC(=O)c1ccccc1)C(N)=O` [Cl-amidine], the “Inhibition of human microglial phagocytosis at 10 μM (<70% control)” value in series [2] (HMC3 cells, 10 μM) is on record as “Y (The compound was found to inhibit phagocytosis (response threshold: <70% control) when human immortalized microglial cells were dosed at 10 μM (Y: yes))”. Moreover, the “Reported as cell active (<10 μM)” value in the series with cellular system is “Y (Published data supports that the compound is active in a cellular system when dosed at 10 μM (Y/N))”.
Turning to `CC(C)(C(=O)O)c1ccc(C(O)CCCN2CCC(C(O)(c3ccccc3)c3ccccc3)CC2)cc1` (stereo not shown) [Fexofenadine], the “Reported as cell active (<10 μM)” value with cellular system is on record as “Y (Published data supports that the compound is active in a cellular system when dosed at 10 μM (Y/N))”.
Turning to `Cc1cc2c(cc1C(=O)c1ccc(C(=O)O)cc1)C(C)(C)CCC2(C)C` [LG-100064], the “Reported as cell active (<10 μM)” value in the series with cellular system is “Y (Published data supports that the compound is active in a cellular system when dosed at 10 μM (Y/N))”.
`CCCCCCCCCCCCCCCCOCC(COCC(F)(F)F)OP(=O)([O-])OC.[Li+]` (stereo not shown) [MJ-33 (lithium salt)]: the “Inhibition of human microglial phagocytosis at 10 μM (<70% control)” value in series [2] (HMC3 cells, 10 μM) is “Y (The compound was found to inhibit phagocytosis (response threshold: <70% control) when human immortalized microglial cells were dosed at 10 μM (Y: yes))”. The “Reported as cell active (<10 μM)” value in the series with cellular system is on record as “Y (Published data supports that the compound is active in a cellular system when dosed at 10 μM (Y/N))”.
Regarding `Cc1cc(OCc2nnc(SC3CCCC3)n2-c2cccnc2)ccc1-c1ccc(S(C)(=O)=O)cc1` [NMS-873], the “Mouse microglial cytotoxicity at 10 μM (<70% control)” value in series [3] (BV2, 10 μM, cell count <70% control) is recorded as “Y (The compound was found to be cytotoxic (cell count threshold: <70% control) when murine immortalized microglial cells were dosed at 10 μM (Y: yes))”. Also, in series [4] (HMC3, 10 μM, cell count <70% control), the “Human microglial cytotoxicity at 10 μM (<70% control)” value is given as “Y (The compound was found to be cytotoxic (cell count threshold: <70% control) when human immortalized microglial cells were dosed at 10 μM (Y: yes))”. In addition, the “Inhibition of mouse microglial phagocytosis at 10 μM (<70% control)” value in series [1] (BV2, 10 μM) is reported as “Y (The compound was found to inhibit phagocytosis (response threshold: <70% control) when murine immortalized microglial cells were dosed at 10 μM (Y: yes))”. Also, in series [2] (HMC3, 10 μM), the “Inhibition of human microglial phagocytosis at 10 μM (<70% control)” value is recorded as “Y (The compound was found to inhibit phagocytosis (response threshold: <70% control) when human immortalized microglial cells were dosed at 10 μM (Y: yes))”. The molecule also gave a kinetic solubility in series [5] of 3.8 µM (≈ 1.98 µg/mL).
`O=C1C=C(NCCc2cc(Br)c(O)c(Br)c2)C(=O)c2ncccc21` [NSC668394]: the “Mouse microglial cytotoxicity at 10 μM (<70% control)” value in series [3] (BV2, 10 μM) is given as “Y (The compound was found to be cytotoxic (cell count threshold: <70% control) when murine immortalized microglial cells were dosed at 10 μM (Y: yes))”. In addition, the “Human microglial cytotoxicity at 10 μM (<70% control)” value in series [4] (HMC3, 10 μM) is recorded as “Y (The compound was found to be cytotoxic (cell count threshold: <70% control) when human immortalized microglial cells were dosed at 10 μM (Y: yes))”. In addition, the “Stimulation of mouse microglial phagocytosis at 10 μM (>150% control)” value (“Stimulation … (>150% control)” below) in series [1] (BV2, 10 μM) is given as “Y (The compound was found to stimulate phagocytosis (response threshold: >150% control) when murine immortalized microglial cells were dosed at 10 μM (Y: yes))”. In series [2] (HMC3, 10 μM), the “Inhibition of human microglial phagocytosis at 10 μM (<70% control)” value is reported as “Y (The compound was found to inhibit phagocytosis (response threshold: <70% control) when human immortalized microglial cells were dosed at 10 μM (Y: yes))”. Also, the solubility (kinetic) in series [5] came out at 18.4 µM (≈ 8.32 µg/mL).
Regarding `CC(=O)NCC(=O)N1[C@@H]2CC[C@H]1c1ccc(Nc3ncc(C(F)(F)F)c(NC4CCC4)n3)cc12` [PF-03814735 (MolPort-023-219-160)], the “Mouse microglial cytotoxicity at 10 μM (<70% control)” value in series [3] (10 μM, BV2) is reported as “Y (The compound was found to be cytotoxic (cell count threshold: <70% control) when murine immortalized microglial cells were dosed at 10 μM (Y: yes))”. Also, the “Human microglial cytotoxicity at 10 μM (<70% control)” value in series [4] (10 μM, HMC3) is on record as “Y (The compound was found to be cytotoxic (cell count threshold: <70% control) when human immortalized microglial cells were dosed at 10 μM (Y: yes))”. Besides, the “Inhibition of mouse microglial phagocytosis at 10 μM (<70% control)” value in series [1] (10 μM, BV2) is on record as “Y (The compound was found to inhibit phagocytosis (response threshold: <70% control) when murine immortalized microglial cells were dosed at 10 μM (Y: yes))”. The “Inhibition of human microglial phagocytosis at 10 μM (<70% control)” value in series [2] (10 μM, HMC3) was “Y (The compound was found to inhibit phagocytosis (response threshold: <70% control) when human immortalized microglial cells were dosed at 10 μM (Y: yes))”. This molecule displayed a kinetic solubility in series [5] of 159 µM (≈ 75.6 µg/mL).
The corresponding values for `CN(C)CCCOc1c(Br)cc(/C=C/C(=O)NCCCOc2c(Br)cc(CCN(C)C)cc2Br)cc1Br` [Psammaplysene A] are “Y (The compound was found to be cytotoxic (cell count threshold: <70% control) when murine immortalized microglial cells were dosed at 10 μM (Y: yes))”, “Y (The compound was found to be cytotoxic (cell count threshold: <70% control) when human immortalized microglial cells were dosed at 10 μM (Y: yes))”, “Y (The compound was found to inhibit phagocytosis (response threshold: <70% control) when murine immortalized microglial cells were dosed at 10 μM (Y: yes))”, “Y (The compound was found to inhibit phagocytosis (response threshold: <70% control) when human immortalized microglial cells were dosed at 10 μM (Y: yes))” and 125 µM (≈ 96.4 µg/mL).
Consider `Cn1nccc1Nc1nccc(-c2ccn([C@H](CO)c3ccc(Cl)c(F)c3)c(=O)c2)n1` [Ravoxertinib (GDC0994)], for which the “Mouse microglial cytotoxicity at 10 μM (<70% control)” value in series [3] (10 μM, BV2) is “Y (The compound was found to be cytotoxic (cell count threshold: <70% control) when murine immortalized microglial cells were dosed at 10 μM (Y: yes))”. Further, the “Human microglial cytotoxicity at 10 μM (<70% control)” value in series [4] (10 μM, HMC3) is recorded as “Y (The compound was found to be cytotoxic (cell count threshold: <70% control) when human immortalized microglial cells were dosed at 10 μM (Y: yes))”. For the same molecule, the “Inhibition of mouse microglial phagocytosis at 10 μM (<70% control)” value in series [1] (10 μM, BV2) is given as “Y (The compound was found to inhibit phagocytosis (response threshold: <70% control) when murine immortalized microglial cells were dosed at 10 μM (Y: yes))”. Besides, in series [2] (10 μM, HMC3), the “Inhibition of human microglial phagocytosis at 10 μM (<70% control)” value is on record as “Y (The compound was found to inhibit phagocytosis (response threshold: <70% control) when human immortalized microglial cells were dosed at 10 μM (Y: yes))”. In series [5], this molecule returned a solubility (kinetic) of 3.8 µM (≈ 1.68 µg/mL).
For `C=CC[N+]1([C@H]2C[C@H]3[C@@H]4CC[C@H]5C[C@H](O)[C@@H](N6CCOCC6)C[C@]5(C)[C@H]4CC[C@]3(C)[C@H]2OC(C)=O)CCCC1` [Rocuronium Bromide], the “Inhibition of human microglial phagocytosis at 10 μM (<70% control)” value in series [2] (HMC3 cells, 10 μM) is “Y (The compound was found to inhibit phagocytosis (response threshold: <70% control) when human immortalized microglial cells were dosed at 10 μM (Y: yes))”. In addition, the “Reported as cell active (<10 μM)” value with cellular system is recorded as “Y (Published data supports that the compound is active in a cellular system when dosed at 10 μM (Y/N))”.
On to `CC(=O)O[C@@H]1[C@@H](OC(C)=O)[C@@H](O)[C@H](Oc2c(-c3ccc(O)cc3)oc3cc(O)cc(O)c3c2=O)O[C@H]1C` [SL0101], for which the “Inhibition of human microglial phagocytosis at 10 μM (<70% control)” value in series [2] (HMC3 cells, 10 μM) is listed as “Y (The compound was found to inhibit phagocytosis (response threshold: <70% control) when human immortalized microglial cells were dosed at 10 μM (Y: yes))”. Moreover, the “Reported as cell active (<10 μM)” value with cellular system is listed as “Y (Published data supports that the compound is active in a cellular system when dosed at 10 μM (Y/N))”.
In the case of `CCCCCOc1cc2c(cc1-c1cc(/C=C/C(=O)O)ccc1O)C(C)(C)CCC2(C)C` [UVI 3003], the “Reported as cell active (<10 μM)” value with cellular system was “Y (Published data supports that the compound is active in a cellular system when dosed at 10 μM (Y/N))”.
With `CNC(=O)c1cccc(-c2ccc3c(N4CCOC[C@@H]4C)nc(N4CCOC[C@@H]4C)nc3n2)c1` [Vistusertib], the “Mouse microglial cytotoxicity at 10 μM (<70% control)” value in series [3] (BV2 cells, 10 μM, cell count <70% control) is recorded as “Y (The compound was found to be cytotoxic (cell count threshold: <70% control) when murine immortalized microglial cells were dosed at 10 μM (Y: yes))”. In addition, the “Stimulation … (>150% control)” value in series [1] (BV2 cells, 10 μM) is given as “Y (The compound was found to stimulate phagocytosis (response threshold: >150% control) when murine immortalized microglial cells were dosed at 10 μM (Y: yes))”. For the same molecule, the “Reported as cell active (<10 μM)” value in the series with cellular system was “Y (Published data supports that the compound is active in a cellular system when dosed at 10 μM (Y/N))”.
For the molecule `O=S(=O)(NC1CCNCC1)c1cc(S(=O)(=O)c2ccccc2)ccc1C(F)(F)F` [WAY-316606], the “Stimulation … (>150% control)” value in series [1] (BV2 cells, 10 μM) was “Y (The compound was found to stimulate phagocytosis (response threshold: >150% control) when murine immortalized microglial cells were dosed at 10 μM (Y: yes))”. Moreover, the “Reported as cell active (<10 μM)” value with cellular system is “Y (Published data supports that the compound is active in a cellular system when dosed at 10 μM (Y/N))”.
